Key:
[1] = test system: soybean; experiment: Test B pre/postemergence soybean; type: in vivo, Glycine max; details: for Soybean plant response rating (0 to 10 scale): 0 is no effect
Procedure, shortened: (§1)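 Herbicidal effect was estimated by eye on a ten-point control scale after plants spent twelve to sixteen days in a greenhouse following soil or foliar treatment. Foliar sprays targeted plants at one to four leaves; all doses were formulated in a non-phytotoxic solvent with surfactant.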

[2] = test system: green foxtail; experiment: Test E green foxtail; type: in vivo, Setaria viridis; details: Preemergence; for Green foxtail plant response rating (0 to 100 scale): Rate 250 g/ha; for Plant response rating, Green foxtail: 0 to 100 scale where 0 is no effect and 100 is complete control
[3] = test system: winter wheat; experiment: Test E winter wheat; type: in vivo, Triticum aestivum; details: Preemergence; for Wheat (winter) plant response rating (0 to 100 scale): Rate 250 g/ha; for Plant response rating, Wheat (winter): 0 to 100 scale where 0 is no effect and 100 is complete control
[4] = test system: Italian ryegrass; experiment: Test E Italian ryegrass; type: in vivo, Lolium multiflorum; details: Preemergence; for I. Ryegrass plant response rating (0 to 100 scale): Rate 250 g/ha; for Plant response rating, I. Ryegrass: 0 to 100 scale where 0 is no effect and 100 is complete control
[5] = test system: velvetleaf; experiment: Test B pre/postemergence velvetleaf; type: in vivo, Abutilon theophrasti; details: for Velvetleaf plant response rating (0 to 10 scale): Rate 125 g/ha, 0 is no effect
Procedure, shortened: as §1

[6] = test system: blackgrass; experiment: Test B pre/postemergence blackgrass; type: in vivo, Alopecurus myosuroides; details: for Blackgrass plant response rating (0 to 10 scale): 0 is no effect
Procedure, shortened: as §1

[7] = test system: wild oat; experiment: Test E wild oat; type: in vivo, Avena fatua; details: Preemergence; for Wild oat plant response rating (0 to 100 scale): Rate 250 g/ha; for Plant response rating, Wild oat: 0 to 100 scale where 0 is no effect and 100 is complete control
[8] = test system: blackgrass; experiment: Test E blackgrass; type: in vivo, Alopecurus myosuroides; details: Preemergence; for Blackgrass plant response rating (0 to 100 scale): Rate 250 g/ha; for Plant response rating, Blackgrass: 0 to 100 scale where 0 is no effect and 100 is complete control
[9] = test system: winter wheat; experiment: Test E winter wheat; type: in vivo, Triticum aestivum; details: Postemergence; for Plant response rating, Wheat (winter): 0 to 100 scale; for Wheat (winter) plant response rating: Rate 250 g/ha, 0 to 100 scale where 0 is no effect and 100 is complete control
Procedure, shortened: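 Greenhouse test: compounds in non-phytotoxic solvent with surfactant; for postemergence, sprayed on plants at 1- to 4-leaf stage grown in 60:40 sandy loam/potting mix. Injury rated visually against untreated controls after about 21 to 28 days.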

[10] = test system: winter barley; experiment: Test E winter barley; type: in vivo, Hordeum vulgare; details: Preemergence; for Barley (winter) plant response rating (0 to 100 scale): Rate 250 g/ha; for Plant response rating, Barley (winter): 0 to 100 scale where 0 is no effect and 100 is complete control
[11] = test system: bedstraw; experiment: Test B pre/postemergence bedstraw; type: in vivo, Galium aparine; details: for Bedstraw plant response rating (0 to 10 scale): 0 is no effect
Procedure, shortened: as §1

[12] = Postemergence, Rate 125 g/ha, scale of 0 to 10 where 0 is no effect and 10 is complete control
[13] = Preemergence, Rate 62 g/ha, scale of 0 to 10 where 0 is no effect and 10 is complete control
[14] = Preemergence, Rate 125 g/ha, 10 is complete control
[15] = Preemergence, Rate 250 g/ha, scale 0 to 10, 0 is no effect, 10 is complete control
[16] = Preemergence, Rate 500 g/ha, scale 0 to 10 (0 no effect, 10 complete control)
[17] = Rate 62 g/ha, Postemergence, scale of 0 to 10 where 0 is no effect and 10 is complete control
[18] = Rate 250 g/ha, Postemergence, scale 0 to 10, 0 is no effect, 10 is complete control
[19] = Rate 500 g/ha, Postemergence, scale 0 to 10
[20] = Preemergence, 10 is complete control
[21] = Rate 1000 g/ha, 0 is no effect and 100 is complete control
[22] = Rate 500 g/ha, 0 no effect, 100 complete control
[23] = Preemergence, Rate 62 g/ha, scale 0 to 10 (0 no effect, 10 complete control)

CC1CCCCC1n1c(=O)on(C(=O)N(c2ccccc2)C(C)C)c1=O (centres unmarked) [Compound 162]
6: Blackgrass plant response rating [6, 19] | Bedstraw plant response rating [11, 19]
15: Plant response rating, Wheat (winter) ([3]; Rate 500 g/ha)
70: Plant response rating, I. Ryegrass ([4]; Rate 1000 g/ha)
4: Soybean plant response rating [1, 12] | Plant response rating, Soybean [1, 18] | Soybean plant response rating [1, 19] | Plant response rating, Velvetleaf [5, 18] | Velvetleaf plant response rating [5, 19]
2: Blackgrass plant response rating (0 to 10 scale) [6, 14] | Blackgrass plant response rating [6, 15] | Bedstraw plant response rating [11, 12]
50: I. Ryegrass plant response rating (0 to 100 scale) [4] | Wild oat plant response rating (0 to 100 scale) [7] | Plant response rating, Wild oat ([7]; Rate 500 g/ha) | Plant response rating, Wheat (winter) [9, 21]
30: Wheat (winter) plant response rating (0 to 100 scale) [3] | Wheat (winter) plant response rating [9] | Barley (winter) plant response rating (0 to 100 scale) [10] | Plant response rating, Barley (winter) ([10]; Rate 500 g/ha)
3: Soybean plant response rating [1, 17] | Blackgrass plant response rating [6, 16] | Plant response rating, Bedstraw [11, 18]
55: Blackgrass plant response rating (0 to 100 scale) [8] | Plant response rating, Blackgrass ([8]; Rate 1000 g/ha)
40: Plant response rating, Wheat (winter) ([3]; Rate 1000 g/ha) | Plant response rating, Wheat (winter) [9, 22] | Plant response rating, Barley (winter) ([10]; Rate 1000 g/ha)
65: Plant response rating, Green foxtail ([2]; Rate 500 g/ha) | Plant response rating, I. Ryegrass ([4]; Rate 500 g/ha)
60: Green foxtail plant response rating (0 to 100 scale) [2] | Plant response rating, Wild oat ([7]; Rate 1000 g/ha) | Plant response rating, Blackgrass ([8]; Rate 500 g/ha)
85: Plant response rating, Green foxtail ([2]; Rate 1000 g/ha)
0: Soybean plant response rating [1, 13] | Soybean plant response rating (0 to 10 scale) [1, 14] | Soybean plant response rating [1, 15] | Soybean plant response rating [1, 16] | Velvetleaf plant response rating [5, 13] | Velvetleaf plant response rating (0 to 10 scale) [5, 20] | Velvetleaf plant response rating [5, 15] | Velvetleaf plant response rating [5, 16] | Blackgrass plant response rating [6, 12] | Blackgrass plant response rating [6, 13] | Blackgrass plant response rating [6, 17] | Plant response rating, Blackgrass [6, 18] | Bedstraw plant response rating [11, 13] | Bedstraw plant response rating (0 to 10 scale) [11, 14] | Bedstraw plant response rating [11, 15] | Bedstraw plant response rating [11, 16] | Bedstraw plant response rating [11, 17]

CC(C)N(Cc1ccccc1)C(=O)n1oc(=O)n(C(C)C)c1=O [Compound 165]
6: Plant response rating, Soybean [1, 18] | Soybean plant response rating [1, 19] | Blackgrass plant response rating [6, 15]
3: Blackgrass plant response rating [6, 12] | Blackgrass plant response rating (0 to 10 scale) [6, 14] | Bedstraw plant response rating [11, 15]
4: Soybean plant response rating [1, 12] | Velvetleaf plant response rating [5, 15] | Velvetleaf plant response rating [5, 16] | Bedstraw plant response rating [11, 16] | Plant response rating, Bedstraw [11, 18]
0: Soybean plant response rating [1, 13] | Soybean plant response rating (0 to 10 scale) [1, 14] | Soybean plant response rating [1, 15] | Soybean plant response rating [1, 16] | Velvetleaf plant response rating [5, 13] | Blackgrass plant response rating [6, 13] | Blackgrass plant response rating [6, 17] | Bedstraw plant response rating [11, 12] | Bedstraw plant response rating [11, 13] | Bedstraw plant response rating [11, 17]
100: Plant response rating, Blackgrass ([8]; Rate 1000 g/ha)
85: Plant response rating, Wheat (winter) [9, 21]
55: Plant response rating, Green foxtail ([2]; Rate 500 g/ha) | Plant response rating, I. Ryegrass ([4]; Rate 500 g/ha) | Wild oat plant response rating (0 to 100 scale) [7] | Plant response rating, Barley (winter) ([10]; Rate 500 g/ha)
70: Plant response rating, Wheat (winter) ([3]; Rate 1000 g/ha) | Plant response rating, I. Ryegrass ([4]; Rate 1000 g/ha) | Plant response rating, Wild oat ([7]; Rate 1000 g/ha)
60: I. Ryegrass plant response rating (0 to 100 scale) [4] | Plant response rating, Wild oat ([7]; Rate 500 g/ha) | Plant response rating, Blackgrass ([8]; Rate 500 g/ha)
7: Plant response rating, Blackgrass [6, 18]
2: Soybean plant response rating [1, 17]
8: Blackgrass plant response rating [6, 16] | Blackgrass plant response rating [6, 19] | Bedstraw plant response rating [11, 19]
40: Wheat (winter) plant response rating (0 to 100 scale) [3] | Blackgrass plant response rating (0 to 100 scale) [8] | Wheat (winter) plant response rating [9]
1: Velvetleaf plant response rating (0 to 10 scale) [5, 20] | Plant response rating, Velvetleaf [5, 18] | Velvetleaf plant response rating [5, 19] | Bedstraw plant response rating (0 to 10 scale) [11, 14]
65: Plant response rating, Green foxtail ([2]; Rate 1000 g/ha) | Plant response rating, Wheat (winter) [9, 22]
20: Barley (winter) plant response rating (0 to 100 scale) [10]
50: Green foxtail plant response rating (0 to 100 scale) [2] | Plant response rating, Wheat (winter) ([3]; Rate 500 g/ha) | Plant response rating, Barley (winter) ([10]; Rate 1000 g/ha)

Cc1nsc(C)c1-n1c(=O)on(C(=O)N(c2ccc(F)cc2)C(C)C)c1=O [Compound 157]
50: Plant response rating, Green foxtail ([2]; Rate 1000 g/ha) | Plant response rating, I. Ryegrass ([4]; Rate 1000 g/ha) | Wild oat plant response rating (0 to 100 scale) [7] | Plant response rating, Wild oat ([7]; Rate 1000 g/ha) | Plant response rating, Blackgrass ([8]; Rate 1000 g/ha)
2: Soybean plant response rating [1, 19] | Blackgrass plant response rating [6, 19]
30: Green foxtail plant response rating (0 to 100 scale) [2] | Plant response rating, Wheat (winter) ([3]; Rate 500 g/ha) | Plant response rating, I. Ryegrass ([4]; Rate 500 g/ha) | Plant response rating, Wild oat ([7]; Rate 500 g/ha) | Plant response rating, Wheat (winter) [9, 22] | Plant response rating, Barley (winter) ([10]; Rate 1000 g/ha)
5: Blackgrass plant response rating [6, 15] | Blackgrass plant response rating [6, 16]
10: Plant response rating, Barley (winter) ([10]; Rate 500 g/ha)
20: Wheat (winter) plant response rating (0 to 100 scale) [3] | I. Ryegrass plant response rating (0 to 100 scale) [4] | Blackgrass plant response rating (0 to 100 scale) [8] | Wheat (winter) plant response rating [9]
1: Soybean plant response rating [1, 12] | Plant response rating, Soybean [1, 18]
0: Soybean plant response rating [1, 23] | Soybean plant response rating (0 to 10 scale) [1, 14] | Soybean plant response rating [1, 15] | Soybean plant response rating [1, 16] | Soybean plant response rating [1, 17] | Velvetleaf plant response rating [5, 23] | Velvetleaf plant response rating (0 to 10 scale) [5, 20] | Velvetleaf plant response rating [5, 15] | Velvetleaf plant response rating [5, 16] | Plant response rating, Velvetleaf [5, 18] | Velvetleaf plant response rating [5, 19] | Blackgrass plant response rating [6, 12] | Blackgrass plant response rating [6, 23] | Blackgrass plant response rating (0 to 10 scale) [6, 14] | Blackgrass plant response rating [6, 17] | Plant response rating, Blackgrass [6, 18] | Barley (winter) plant response rating (0 to 100 scale) [10] | Bedstraw plant response rating [11, 12] | Bedstraw plant response rating [11, 23] | Bedstraw plant response rating (0 to 10 scale) [11, 14] | Bedstraw plant response rating [11, 15] | Bedstraw plant response rating [11, 16] | Bedstraw plant response rating [11, 17] | Plant response rating, Bedstraw [11, 18]
40: Plant response rating, Green foxtail ([2]; Rate 500 g/ha) | Plant response rating, Wheat (winter) ([3]; Rate 1000 g/ha) | Plant response rating, Blackgrass ([8]; Rate 500 g/ha) | Plant response rating, Wheat (winter) [9, 21]
